Results as given in patent US10730022B2, “Process for the separation of organic compounds” (VITO NV, priority 2015, dated 2020).
Values joined by “and” are separate entries in the source; they are usually repeats but may differ in a detail not shown here. Equal entries are not always repeated.

How the values were obtained:
[1] = membrane contactor extraction of MPPA/MBA mixture from pH 10 feed into pH 3 sodium acetate collection solution (Example 1); format: physicochemical; settings: for time of membrane extraction after which amine was detected in the acidic extracting solution: MPPA/MBA mixture, pH 10 feed, pH 3 collection, 30° C., 20 l/h, 300-500 mbar; for % of theoretical extractable amount extracted: after 7 h; for theoretical extractable amine: from % uncharged at pH 10, 596 mg MPPA and 484 mg MBA in feed
Description: A mixture of MPPA and MBA in a pH 10 aqueous buffer (feed solution) was applied to a first compartment of a membrane contactor module, with the second compartment comprising a sodium acetate buffer (pH 3) (collection solution). The membrane separation was performed at a flow rate of 20 l/h, a temperature of 30° C. and a transmembrane pressure of 300-500 mbar. Feed and collection solutions were continuously recycled in the membrane contactor module. The membrane used was a phenyl phosphonic acid functionalized ceramic membrane, wherein both the external surface as the internal surface of the pores was linked to the organic moiety. […] The amine concentration in the extracting sodium acetate solution was followed up over time (FIG. 4).

[2] = cited from earlier work
[3] = % uncharged amine at pH 10, calculated using Henderson-Hasselbalch equation; format: physicochemical; settings: for % uncharged at pH 10: calculated using Henderson-Hasselbalch equation; for uncharged/charged ratio of the amine at the pH of the feed solution: pH 10 feed
Description: Assuming that only the uncharged amine can pass through the membrane, the (theoretical) extractable amount can be calculated using the % uncharged amine at pH 10 (Table 1). For MPPA (596 mg in feed solution) and MBA (484 mg in the feed solution) this corresponds to 113 mg and 358 mg theoretical extractable amine, respectively. After 7 h, 15% of this amount was extracted for MPPA, while only 3% of this amount was extracted for MBA.

[4] = octanol/water; cited from earlier work
[5] = cited from earlier work; remark: listed apart in the source
[6] = membrane contactor extraction of transamination reaction mixture in organic solvent into pH 3 sodium acetate buffer (Example 3); format: physicochemical; settings: organic solvent feed, pH 3 sodium acetate extracting solution
Description: An enzymatically catalysed transamination reaction is performed in an organic solvent, using benzyl acetone (BA) and isopropyl amine (IPA) as respectively substrate ketone and substrate amine. […] The resulting products are acetone (as co-product ketone) and (S-)1-methyl-3-phenylpropylamine (S-MPPA—a chiral amine). This reaction is prone to product inhibition by MPPA.
The reaction mixture is passed through a membrane contactor module, using an acidic sodium acetate buffer (pH 3) as extracting solution.

[7] = membrane contactor extraction of MPPA/IPA mixture from pH 10 feed into pH 3 sodium acetate collection solution (Example 2); format: physicochemical; settings: pH 3 collection, 30° C., 20 l/h, 300 to 500 mbar
Description: A mixture of isopropyl amine (IPA) and 1-methyl-3-phenylpropylamine (MPPA) in a pH 10 aqueous buffer (feed solution) was applied to a first compartment of a membrane contactor module, with the second compartment comprising a sodium acetate buffer (pH 3) (collection solution). The membrane separation was performed at a flow rate of 20 l/h, temperature of 30° C. and transmembrane pressure of 300 to 500 mbar. Feed and collection solutions were continuously recycled in the membrane contactor module. The membrane used was a phenyl phosphonic acid functionalized ceramic membrane (as in Example 1), wherein both the external surface as the internal surface of the pores was linked to the organic moiety. The amine concentration in the extracting sodium acetate solution was followed up over time (FIG. 5).

CNCc1ccccc1 [MBA, methylbenzylamine]
time of membrane extraction after which amine was detected in the acidic extracting solution [1]: 3.5 h | % of theoretical extractable amount extracted [1]: 3% | theoretical extractable amine [1]: 358 mg | pKa [2]: 9.54 | % uncharged at pH 10 [3]: 74% | uncharged/charged ratio of the amine at the pH of the feed solution [3]: ≈ 3 | LogP [4]: 1.7

CC(=O)CCc1ccccc1 [BA, benzyl acetone]
solubility in aqueous liquids [5]: 10 mM and 1.48 g/1

CC(C)N [IPA, isopropyl amine]
membrane passage behaviour [6]: mainly remains in the feed solution | time of membrane extraction after which amine was detected in the acidic extracting solution [7]: about 7 h | pKa [2]: 10.73 | % uncharged at pH 10 [3]: 16% | LogP [4]: 0.391

CC(N)CCc1ccccc1 (stereo not shown) [MPPA, 1-methyl-3-phenylpropylamine]
time of membrane extraction after which amine was detected in the acidic extracting solution [1]: less than 1 h | % of theoretical extractable amount extracted [1]: 15% | theoretical extractable amine [1]: 113 mg | membrane passage behaviour [6]: efficiently passes the membrane | time of membrane extraction after which amine was detected in the acidic extracting solution [7]: less than 1 h | pKa [2]: 10.63 | % uncharged at pH 10 [3]: 19% | uncharged/charged ratio of the amine at the pH of the feed solution [3]: ≈ 0.25 | LogP [4]: 2.264
